Test results published in ChEMBL document CHEMBL1201862, “PubChem BioAssay data set” (2004).
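A five-concentration, 48-hour dose response in 96-well plates underlies each endpoint, interpolated linearly between surrounding concentrations. Abbreviation: GI50, concentration required for 50% inhibition of growth.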 Calls of active or inactive are those of the source. Rule as the data show it: active = GI50 up to about 1.1 µM and inactive = higher.

What was measured:
Assay in all cases: growth of human tumour cells (NCI), 48 h
[1] = test system: HCC 2998
[2] = test system: RPMI-8226
[3] = test system: PC-3
[4] = test system: A498
[5] = test system: OVCAR-8
[6] = test system: OVCAR-3
[7] = test system: SF-268
[8] = test system: HOP-62
[9] = test system: Hs-578T
[10] = test system: RXF 393
[11] = test system: SF-539
[12] = test system: MOLT-4
[13] = test system: UO-31
[14] = test system: SK-MEL-28
[15] = test system: LOX IMVI
[16] = test system: MDA-MB-231
[17] = test system: M14
[18] = test system: COLO 205
[19] = test system: MDA-N

Measured: GI50

COc1ccc2nc3cc(Cl)ccc3c(NCCNCCCNC(=O)c3cc(-c4ccccc4)nc4ccccc34)c2c1
inactive: [1] > 100 µM | [2] > 100 µM | [3] 56.6 µM | [4] > 100 µM | [5] > 100 µM | [6] 54.7 µM | [7] > 100 µM | [8] > 100 µM | [9] > 100 µM | [10] > 100 µM | [11] > 100 µM | [12] > 100 µM | [13] > 100 µM | [14] > 100 µM | [15] 82.6 µM | [16] > 100 µM | [17] > 100 µM | [18] > 100 µM | [19] 28.6 µM

CC1(c2ccc(Cl)cc2)C=C(c2ccc(Cl)cc2)C(C#N)=C(C(C#N)C#N)N1.CNC (stereo unspecified)
inactive: [1] 16.3 µM | [2] 34.4 µM | [3] 16.6 µM | [4] 17.9 µM | [5] 14.5 µM | [6] 8.75 µM | [7] 10.7 µM | [8] 16.5 µM | [9] 9.82 µM | [10] 18.7 µM | [11] 19.5 µM | [12] 13.6 µM | [13] 16.4 µM | [14] 24.1 µM | [15] 17 µM | [16] 24.9 µM | [17] 18.6 µM | [18] 14.5 µM | [19] 17.3 µM

CN(C)CCCOC(=O)C(c1ccccc1)C1(O)CCSCC1 (stereo unspecified)
inactive: [1] > 100 µM | [2] > 100 µM | [3] > 100 µM | [4] > 100 µM | [5] > 100 µM | [6] > 100 µM | [7] > 100 µM | [8] > 100 µM | [9] > 100 µM | [10] > 100 µM | [11] > 100 µM | [12] > 100 µM | [13] > 100 µM | [14] > 100 µM | [15] > 100 µM | [16] > 100 µM | [17] > 100 µM | [18] > 100 µM | [19] > 100 µM

CCOC(=O)c1oc2cc3c(c4c2c1-c1ccccc1N4C)C=CC(C)(C)O3
inactive: [1] 65.3 µM | [2] 12.8 µM | [3] 12.3 µM | [4] 25.9 µM | [5] 5.85 µM | [6] 9.59 µM | [7] 13.5 µM | [8] 6.84 µM | [9] 19.9 µM | [10] 7.31 µM | [11] 6.4 µM | [12] 14 µM | [13] 19.5 µM | [14] 23.5 µM | [15] 16.4 µM | [16] 10.4 µM | [17] 40.2 µM | [18] > 65.3 µM | [19] > 79.8 µM
